According to PubChem BioAssay AID624327 (Sanford-Burnham Center for Chemical Genomics, 2012):

Each molecule was assayed against Fatty acid synthase (Homo sapiens) (UniProt P49327) (assay: inhibition of human FAS-TE enzyme activity – biochemical, endpoint fluorescence intensity, uHTS hits, dose response (AID 624327)). Conditions: recombinant FAS-TE, OMFH fluorogenic substrate.
Sequence of Fatty acid synthase (Homo sapiens) (P49327 whole entry, looked up): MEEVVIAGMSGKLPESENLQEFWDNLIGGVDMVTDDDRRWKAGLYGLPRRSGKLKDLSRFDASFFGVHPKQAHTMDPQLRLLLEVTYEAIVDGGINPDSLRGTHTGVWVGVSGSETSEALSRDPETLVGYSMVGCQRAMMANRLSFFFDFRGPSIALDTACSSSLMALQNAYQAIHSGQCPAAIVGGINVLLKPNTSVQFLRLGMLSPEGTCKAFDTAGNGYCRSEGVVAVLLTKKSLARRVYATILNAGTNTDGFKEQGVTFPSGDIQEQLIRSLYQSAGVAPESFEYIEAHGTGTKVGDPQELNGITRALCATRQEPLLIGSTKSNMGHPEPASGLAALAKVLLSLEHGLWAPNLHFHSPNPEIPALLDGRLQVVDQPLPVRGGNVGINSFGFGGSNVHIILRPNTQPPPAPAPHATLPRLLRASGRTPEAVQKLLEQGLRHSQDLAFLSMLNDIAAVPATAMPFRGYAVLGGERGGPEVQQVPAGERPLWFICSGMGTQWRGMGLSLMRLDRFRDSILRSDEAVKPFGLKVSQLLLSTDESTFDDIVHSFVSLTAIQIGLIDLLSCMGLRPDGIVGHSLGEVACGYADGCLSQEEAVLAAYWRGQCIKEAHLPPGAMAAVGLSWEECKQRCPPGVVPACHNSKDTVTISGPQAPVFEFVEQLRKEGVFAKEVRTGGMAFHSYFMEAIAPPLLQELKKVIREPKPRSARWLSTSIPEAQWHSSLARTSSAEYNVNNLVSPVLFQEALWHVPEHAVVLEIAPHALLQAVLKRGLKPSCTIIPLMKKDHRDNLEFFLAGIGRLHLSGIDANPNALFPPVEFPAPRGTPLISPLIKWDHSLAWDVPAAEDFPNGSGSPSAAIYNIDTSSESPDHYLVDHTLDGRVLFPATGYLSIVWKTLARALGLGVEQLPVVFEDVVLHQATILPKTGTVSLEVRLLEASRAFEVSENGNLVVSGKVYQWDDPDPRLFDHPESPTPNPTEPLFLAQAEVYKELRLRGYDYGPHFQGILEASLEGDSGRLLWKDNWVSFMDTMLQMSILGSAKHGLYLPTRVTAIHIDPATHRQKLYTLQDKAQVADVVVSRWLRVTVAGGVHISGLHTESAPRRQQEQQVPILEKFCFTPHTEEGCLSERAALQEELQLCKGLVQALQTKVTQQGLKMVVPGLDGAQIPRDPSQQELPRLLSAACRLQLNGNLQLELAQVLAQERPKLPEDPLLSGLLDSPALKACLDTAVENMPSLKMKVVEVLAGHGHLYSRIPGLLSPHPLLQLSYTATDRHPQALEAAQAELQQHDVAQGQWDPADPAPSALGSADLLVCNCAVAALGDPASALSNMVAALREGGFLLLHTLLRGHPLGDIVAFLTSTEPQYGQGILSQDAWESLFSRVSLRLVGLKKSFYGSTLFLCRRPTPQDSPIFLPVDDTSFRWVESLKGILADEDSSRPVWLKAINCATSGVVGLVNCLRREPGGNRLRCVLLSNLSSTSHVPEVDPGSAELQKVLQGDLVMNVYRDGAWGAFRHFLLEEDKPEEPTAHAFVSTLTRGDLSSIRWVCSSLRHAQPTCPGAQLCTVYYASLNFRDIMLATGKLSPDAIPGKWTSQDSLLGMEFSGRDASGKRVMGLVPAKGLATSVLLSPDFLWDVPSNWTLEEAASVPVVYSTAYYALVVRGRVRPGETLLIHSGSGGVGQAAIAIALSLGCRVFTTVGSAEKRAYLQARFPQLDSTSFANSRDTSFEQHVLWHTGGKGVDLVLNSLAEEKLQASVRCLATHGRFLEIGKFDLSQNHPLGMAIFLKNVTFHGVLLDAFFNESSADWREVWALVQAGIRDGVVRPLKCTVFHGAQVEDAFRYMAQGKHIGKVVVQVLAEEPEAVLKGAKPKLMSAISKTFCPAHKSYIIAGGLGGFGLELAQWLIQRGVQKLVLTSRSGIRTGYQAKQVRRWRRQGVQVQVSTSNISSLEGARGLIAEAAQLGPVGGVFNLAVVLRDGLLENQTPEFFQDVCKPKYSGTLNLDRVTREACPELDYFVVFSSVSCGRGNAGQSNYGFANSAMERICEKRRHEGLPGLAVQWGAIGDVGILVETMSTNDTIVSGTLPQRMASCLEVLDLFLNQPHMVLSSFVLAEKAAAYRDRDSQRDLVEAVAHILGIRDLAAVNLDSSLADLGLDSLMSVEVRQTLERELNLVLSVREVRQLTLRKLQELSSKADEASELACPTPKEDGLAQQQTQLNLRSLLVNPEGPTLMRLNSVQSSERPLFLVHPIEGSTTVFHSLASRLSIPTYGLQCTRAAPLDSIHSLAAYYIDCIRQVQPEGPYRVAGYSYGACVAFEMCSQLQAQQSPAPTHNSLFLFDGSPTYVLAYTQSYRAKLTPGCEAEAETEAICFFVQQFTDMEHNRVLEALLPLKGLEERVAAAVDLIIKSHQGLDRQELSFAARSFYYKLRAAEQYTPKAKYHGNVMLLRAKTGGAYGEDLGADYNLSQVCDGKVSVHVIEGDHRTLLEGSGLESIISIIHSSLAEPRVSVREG

Row | Compound | IC50 [µM]
1 | Oc1ccc(Cl)cc1Sc1cc(Cl)ccc1O | 3.55
2 | COc1ccc2cc3cc(C(=O)N4CC(C)CC(C)C4)oc3nc2c1 (stereo unspecified) | 3.85
3 | O=C(C[C@H]1C[C@H](C(=O)N2CCOCC2)[C@@]2(CCC3CCCC3)c3[nH]c4cc(-c5ccco5)ccc4c3CCN2C1=O)NCCc1ccccn1 | 6.97
4 | N/C(=N\OC(=O)CCCc1ccccc1)c1cccc([N+](=O)[O-])c1 | 12
5 | CCOC(=O)[C@]12Cc3ccccc3[C@H]1N(C1CCCCC1)C(=O)c1cc(OC)ccc12 | 8.27
6 | CN(C(=O)Nc1ccc(Cl)cc1Cl)[C@H]1c2cc(Br)ccc2OC[C@H]1CO | 11
7 | Cc1cc(C(=O)N/N=C/c2cc([N+](=O)[O-])cc(C)c2O)n[nH]1 | 11.7
8 | COCc1cc(C)nc(SCC[N+](C)(C)CC(=O)Nc2ccccc2)c1C#N | 12.3
9 | COc1ccc(CNC(=O)/C=C/c2cc([N+](=O)[O-])ccc2OC(F)F)cc1OC | 3.26
10 | CCc1nc2c(OCc3ccc(C(F)(F)F)cc3)cccn2c1N(C=O)Cc1ccc(OC)cc1 | 9.2
11 | Cc1ccc(NC(=O)NNC(=O)Cn2nc(-c3ccccc3)c(-c3ccccc3)c(C#N)c2=O)cc1 | 4.69
12 | COc1ccc(/C=C(\NC(=O)c2ccc([N+](=O)[O-])cc2)C(=O)NCCN2CCOCC2)cc1 | 5.25
13 | CCC(C)(C)C1CCC(=NNS(=O)(=O)c2ccc(C)c([N+](=O)[O-])c2)CC1 (stereo unspecified) | 17.9
14 | CC(C)(C)OC(=O)NCCCC[C@H](NC(=O)c1nc[nH]c1C(=O)NC1CCN(C(=O)OC(C)(C)C)CC1)C(=O)OC(C)(C)C | 1.56
15 | CC(C)(C)OC(=O)NCCCC[C@H](NC(=O)c1nc[nH]c1C(=O)NCC(=O)OCc1ccccc1)C(=O)OC(C)(C)C | < 0.16
16 | CCCc1cc(C(=O)Nc2cccc([N+](=O)[O-])c2)cs1 | 8.69
17 | COC(=O)c1cc(C(=O)NC(C)C2CC3CCC2C3)cc([N+](=O)[O-])c1 (stereo unspecified) | 11.6
18 | COc1ccc(NC(=O)CC2C(=O)N(C)C(=S)N2Cc2cccs2)cc1 (stereo unspecified) | 15.8
19 | O=C(CC(c1ccccc1)c1ccccc1)NCC(O)c1ccc([N+](=O)[O-])cc1 (stereo unspecified) | 13.5
20 | CCn1c(=O)c([N+](=O)[O-])c(N2CCN(Cc3ccc4c(c3)OCO4)CC2)c2ccccc21 | 1.83
21 | O=C(COc1ccc2c(-c3ccccc3)cc(=O)oc2c1)N[C@@H](Cc1c[nH]c2ccc(O)cc12)C(=O)O | 6.86
22 | CCCC(C)c1nnc(NC(=O)c2cc(C(=O)OC)cc([N+](=O)[O-])c2)s1 (stereo unspecified) | 7.12
23 | CC(C)(C)c1nc2scc(-c3cccs3)c2c(=O)o1 | 3.39

The remaining lines, values ahead:

Row | IC50 [µM] | Compound
24 | 5.21 | CN(C)S(=O)(=O)c1ccc(-c2csc(-c3cccnc3)n2)cc1
25 | 9.44 | O=C(CN1C(=O)c2cccc([N+](=O)[O-])c2C1=O)N1CCc2ccccc2C1
26 | 2.68 | O=S(=O)(c1ccc(-c2csc(-c3cccnc3)n2)cc1)N1CCCCC1
27 | 2.14 | O=S(=O)(c1ccc(-c2csc(-c3cccnc3)n2)cc1)N1CCOCC1
28 | 11.4 | O=C(Nc1nnc(SCc2ccccc2Cl)s1)c1cccc([N+](=O)[O-])c1
29 | 12 | O=C(c1ccc(Cl)c([N+](=O)[O-])c1)N1CCN(c2ccccc2)CC1
30 | 14.8 | O=S(=O)(c1ccc(-c2csc(Nc3ccc(F)cc3)n2)cc1)N1CCCC1
31 | 2.72 | O=C(OCc1ccc([N+](=O)[O-])cc1)c1cc([N+](=O)[O-])ccc1N1CCOCC1
32 | 0.199 | CCCCC(=O)Nc1nc(-c2ccc(S(=O)(=O)N3CCOCC3)cc2)cs1
33 | 11.8 | COc1ccccc1C(=O)Nc1nc(-c2ccc(S(=O)(=O)N3CCOCC3)cc2)cs1
34 | 17.7 | CCN(CC(=O)NCc1cccs1)S(=O)(=O)c1ccc([N+](=O)[O-])cc1
35 | 1.51 | O=S(=O)(c1ccc(-c2csc(-c3cccnc3)n2)cc1)N1CCCC1
36 | 4.68 | O=C(Nc1nc(-c2ccc(S(=O)(=O)N3CCCC3)cc2)cs1)c1ccco1
37 | 5.24 | CC1(C(=O)NS(=O)(=O)c2ccc(C#N)cc2)CCN1C(=O)c1ccc(C2CCCCC2)cc1 (stereo unspecified)
38 | 1.31 | O=C(Nc1nc(-c2ccc(S(=O)(=O)N3CCCC3)cc2)cs1)C1COc2ccccc2O1 (stereo unspecified)
39 | 1.52 | Cc1cccc(N2CCN(C(=O)CNC(=O)c3cccc([N+](=O)[O-])c3)CC2)c1C
40 | 0.861 | CNS(=O)(=O)c1ccc2c(c1)C(=O)c1cc(S(=O)(=O)NC)ccc1CC2
41 | 0.417 | O=C(COc1ccccc1)Nc1nc(-c2ccc(S(=O)(=O)N3CCOCC3)cc2)cs1
